Assay results reported in US20240390434A1, “PROBIOTIC ENHANCERS AND USES THEREOF” (Blis Technologies Limited, priority 2021, published 2024).

Columns and labels:
S. aureus A222 = assay: Deferred antagonism assay, producer S. salivarius K12; format: cell-based
Procedure: (§1) 1-2 producer strain colonies were transferred from a stock plate into 900 μL of suspension solution using a fresh cotton swab. Following this, suspensions were vortexed, and a sample was inoculated onto solid culture media using a fresh cotton swab. The inoculation was a streak that runs diametrically across the agar plate in a 1.5 cm wide strip. The plate was then incubated. Following incubation all visible colonies were removed by swabbing them from the agar surface. The plates were then treated with chloroform by dispensing 2 ml of chloroform onto 4 cm×4 cm piece of cloth and sealing the inverted agar plate on top for 30 minutes. The plates were then air dried for 30 minutes following chloroforming. 1-2 indicator strain colonies were then transferred from a stock plate into complementary suspension solution. The suspensions were then vortexed, and a sample was inoculated onto the same agar surface. These samples were streaked in a perpendicular direction to the initial producer streak.
(§2) Each indicator streak was prepared with fresh a suspension containing cells from a corresponding stock plate containing the indicator strain of interest. Indicator strains suspension samples were transferred using a fresh cotton swab. Results were measured by qualitatively reviewing the subsequent (if any) sizes of the zones of inhibition (ZOI) of indicator strain colony growth. A positive result is when there is a distinctive reduction or complete inhibition of indicator colony growth on the culture medium.
(§3) CABCa agar plates containing various concentrations of saccharide were prepared according to the methods described in Method 1. Producer strains were transferred from stock agar plates into 900 μL THB using a fresh cotton swab. A plastic spread plater was cut to approximately 1.2 cm width and then dipped into ethanol and left to air dry to ensure sterility. A 100 μL sample of the producer strain suspension was then dispensed onto the agar surface in a straight line running diametrically across the agar surface in (approximately) 20 μL spots. The spots were spaced approximately 1.5 cm apart from each other. The plastic spreader was then used to evenly distribute the spots across the agar surface in a 1.5 cm wide strip. This step was taken to ensure an even producer streak was inoculated onto the agar surface and provided an approximate measure of the initial inoculum concentration. Separate plastic spreaders were used for samples containing different producer strains. The samples were left to soak into the agar surface until there was no visible liquid remaining on the agar surface (approximately 20 minutes). Following producer streak preparations, the deferred antagonism assay protocol was followed as per Method 2. Results were recorded by measuring the size of the zone of inhibition (ZOI) in mm.
(§4) A dose response assay was carried out according to method 3 above, except a 1.2 cm streak was used. For the individual saccharide testing the pH of the producer streak was adjusted after the growth of producer to change the acidic conditions.
(§5) A deferred antagonism assay was conducted using K12 or M18 raw ingredient suspended in Todd Hewitt broth (THB). This was spread as a 1.2 cm streak containing approximately 1-2×10^6 cfu down the middle of a CABCa control or CABCa galactose supplemented test plate. After 18 hrs growth at 37° C. with 5% CO2, bacterial growth was removed, and the pH of the agar in the initial streak was measured and adjusted to a pH of 6.5-7.5 using 0.5M sodium carbonate pH11 before sterilizing the agar surface using chloroform vapor. Bacterial test strains were suspended in i-THB before being swabbed across the plates perpendicular to the initial streak. Plates were incubated for a further 18 hrs incubation at 37° C. with 5% CO2 before measuring (mm) any zones of inhibition for each test strain, […]

S. pyogenes 71-698 = assay: as above; format: cell-based
Procedure: as §1, §2, §3, §4, §5

salA = assay: qPCR relative gene expression in K12 grown on CABCa agar; format: cell-based, S. salivarius K12
Procedure: (§6) Method: CABCa agar plates were prepared either with or without 2.5% w/w raffinose, 0.5% w/w galactose, combined 2.5% w/w raffinose and 0.5% w/w galactose, 0.5% w/w glucose or 2.5% w/w glucose by the addition of 0.5% (w/v) calcium carbonate to solid CAB agar in bottles and then melted by autoclaving at 110° C. for 10 mins. Once cooled, filter sterilised solutions of the saccharides or distilled water were added and mixed and then 20 ml pipetted into petri dishes.
(§7) A S. salivarius K12 raw ingredient suspension was prepared in PBS containing approx. 1×10^8cfu/ml. […] of this suspension was spread evenly onto control and test agar plates. Plates were incubated at 37° C. with 5% CO2 for approx, 19 hrs.
(§8) Bacterial growth from each plate was collected using a sterile cotton swab and resuspended into 1 ml PBS in a screw capped tube. The bacterial cells were then pelleted by centrifugation at 13,000 rpm for 1 minute at 4° C. The supernatant was removed, and the cell pellet was resuspended in 1 ml of TRIzol reagent. The bacterial cell suspension was transferred into a 2 ml screw-capped tube containing 0.1 mm Zirconia/silicon beads. These tubes were then vortexed for 5 minutes at the highest speed to bead beat the bacterial cells to lyse them. The tubes were placed on ice for 1 minute and then re-bead beated again on the vortex for 5 minutes. The tubes were then frozen at −20° C.
(§9) The cDNA samples from K12 raw ingredient grown on the CABCa control plates and CABCa supplemented with the various saccharides were then analysed by qPCR for the levels of gene expression of the following genes: salA, salB, salQ and ureC.
(§10) 10 μl qPCR reactions were prepared containing 2 μl of cDNA, 5 μl SYBR green master mix, 0.5 μl forward primer, 0.5 μl reverse primer and nuclease free water up to 10 μl. The dilution of cDNA in each qPCR was optimised with each primer set.
(§11) qPCR method consisted of the following cycles: Hold Stage: 2 mins at 50° C. followed by 10 mins at 95° C.; PCR Stage: 15 secs at 95° C. followed by 1 min at 60° C.; Melt Curve Stage: 15 secs at 95° C. followed by 1 min at 60° C. followed by 15 secs at 95° C.
(§12) To analyse the relative expression levels the 2^−ΔΔCt method was used to determine the relative fold gene expression level comparing the different sugars to a CABCa plate control. The reference gene used for this analysis was gyrA.

salQ = assay: as above; format: cell-based, S. salivarius K12
Procedure: as §6, §7, §8, §9, §10, §11, §12

ureC = assay: as above; format: cell-based, S. salivarius K12
Procedure: as §6, §7, §8, §9, §10, §11, §12

[1] = K12, Raffinose 1.7% wt, pH adjusted
[2] = K12, Raffinose 2.5% wt, pH adjusted
[3] = K12, Raffinose 5% wt, pH adjusted
[4] = K12, Raffinose 10% wt, pH adjusted

Compound: OC[C@H]1O[C@H](OC[C@H]2O[C@H](O[C@]3(CO)O[C@H](CO)[C@@H](O)[C@@H]3O)[C@H](O)[C@@H](O)[C@@H]2O)[C@H](O)[C@@H](O)[C@H]1O [Raffinose, D-(+) Raffinose pentahydrate]
- sensitivity of S. aureus A222 to K12 (S. aureus A222; 1.25, 2.5, 5 and 10% w/v raffinose added): sensitive
- Zone of inhibition S. aureus A222 (S. aureus A222; K12, Raffinose 1.7% wt): 12 mm
- Zone of inhibition S. aureus A222 (S. aureus A222; [1]): 8 mm
- Zone of inhibition S. aureus A222 (S. aureus A222; K12, Raffinose 2.5% wt): 15 mm
- Zone of inhibition S. aureus A222 (S. aureus A222; [2]): 15 mm
- Zone of inhibition S. aureus A222 (S. aureus A222; K12, Raffinose 3.3% wt): 16 mm
- Zone of inhibition S. aureus A222 (S. aureus A222; K12, Raffinose 3.3% wt, pH adjusted): 13 mm
- Zone of inhibition S. aureus A222 (S. aureus A222; K12, Raffinose 5% wt): 14 mm
- Zone of inhibition S. aureus A222 (S. aureus A222; [3]): 14 mm
- Zone of inhibition S. aureus A222 (S. aureus A222; K12, Raffinose 10% wt): 13 mm
- Zone of inhibition S. aureus A222 (S. aureus A222; [4]): 13 mm
- Inhibitory activity of S. salivarius K12 in presence of saccharides, S. aureus A222 (S. aureus A222; K12, saccharide 3.3% w/v): ✓
- Inhibitory activity of S. salivarius K12 in presence of saccharides, S. aureus A222 (S. aureus A222; K12, saccharide range 2.5%-10% w/v): ✓
- inhibition by K12 of S. pyogenes (S. pyogenes 71-698; 0.5 to 10% w/v raffinose): increase in inhibition
- Zone of inhibition S. pyogenes 71-698 (S. pyogenes 71-698; K12, Raffinose 1.7% wt): 10 mm
- Zone of inhibition S. pyogenes 71-698 (S. pyogenes 71-698; [1]): 4 mm
- Zone of inhibition S. pyogenes 71-698 (S. pyogenes 71-698; K12, Raffinose 2.5% wt): 9 mm
- Zone of inhibition S. pyogenes 71-698 (S. pyogenes 71-698; [2]): 3 mm
- Zone of inhibition S. pyogenes 71-698 (S. pyogenes 71-698; K12, Raffinose 3.3% wt): 11 mm
- Zone of inhibition S. pyogenes 71-698 (S. pyogenes 71-698; K12, Raffinose 5% wt): 7 mm
- Zone of inhibition S. pyogenes 71-698 (S. pyogenes 71-698; [3]): 1 mm
- Zone of inhibition S. pyogenes 71-698 (S. pyogenes 71-698; K12, Raffinose 10% wt): 3 mm
- Zone of inhibition S. pyogenes 71-698 (S. pyogenes 71-698; [4]): 3 mm
- increase in gene expression of salA relative to no sugar control (salA; 2.5% w/w sugar in CABCa agar): ~5000 fold
- salQ upregulated relative to a no sugar control (salQ; 2.5% w/w sugar in CABCa agar): 93 fold
- upregulation in urease (ureC) expression (ureC; 2.5% w/w sugar in CABCa agar): 234 fold

Compound: O=C[C@H](O)[C@@H](O)[C@@H](O)[C@H](O)CO [Galactose, D-galactose]
- Inhibitory activity of S. salivarius K12 in presence of saccharides, S. aureus A222 (S. aureus A222; K12, saccharide range 0.83%-3.3% w/v): ✓
- zone of inhibition at 0.5 % strength (S. aureus A222; Staphylococcus aureus, A222, K12, Galactose 0.5% w/w, read-out: Size of zone inhibition normalised to control, S. aureus A222): 12 mm
- zone of inhibition at 1.25 % strength (S. aureus A222; Staphylococcus aureus, A222, K12, Galactose 1.25% w/w, read-out: Size of zone inhibition normalised to control, S. aureus A222): 8 mm
- zone of inhibition at 1.7 % strength (S. aureus A222; Staphylococcus aureus, A222, K12, Galactose 1.7% w/w, read-out: Size of zone inhibition normalised to control, S. aureus A222): 9 mm
- zone of inhibition at 2.5 % strength (S. aureus A222; Staphylococcus aureus, A222, K12, Galactose 2.5% w/w, read-out: Size of zone inhibition normalised to control, S. aureus A222): 6 mm
- zone of inhibition at 3.3 % strength (S. aureus A222; Staphylococcus aureus, A222, K12, Galactose 3.3% w/w, read-out: Size of zone inhibition normalised to control, S. aureus A222): 0 mm
- zone of inhibition at 5 % strength (S. aureus A222; Staphylococcus aureus, A222, K12, Galactose 5% w/w, read-out: Size of zone inhibition normalised to control, S. aureus A222): 0 mm
- zone of inhibition at 0.5 % strength (S. pyogenes 71-698; Streptococcus pyogenes, 71698, K12, Galactose 0.5% w/w, read-out: Size of zone inhibition normalised to control, S. pyogenes 71-698): 4.5 mm
- zone of inhibition at 1.25 % strength (S. pyogenes 71-698; Streptococcus pyogenes, 71698, K12, Galactose 1.25% w/w, read-out: Size of zone inhibition normalised to control, S. pyogenes 71-698): 3.5 mm
- zone of inhibition at 1.7 % strength (S. pyogenes 71-698; Streptococcus pyogenes, 71698, K12, Galactose 1.7% w/w, read-out: Size of zone inhibition normalised to control, S. pyogenes 71-698): 3.5 mm
- zone of inhibition at 2.5 % strength (S. pyogenes 71-698; Streptococcus pyogenes, 71698, K12, Galactose 2.5% w/w, read-out: Size of zone inhibition normalised to control, S. pyogenes 71-698): 5.5 mm
- zone of inhibition at 3.3 % strength (S. pyogenes 71-698; Streptococcus pyogenes, 71698, K12, Galactose 3.3% w/w, read-out: Size of zone inhibition normalised to control, S. pyogenes 71-698): 1.5 mm
- zone of inhibition at 5 % strength (S. pyogenes 71-698; Streptococcus pyogenes, 71698, K12, Galactose 5% w/w, read-out: Size of zone inhibition normalised to control, S. pyogenes 71-698): 0 mm
- increase in gene expression of salA relative to no sugar control (salA; 0.5% w/w sugar in CABCa agar): ~12000 fold
- salQ upregulated relative to a no sugar control (salQ; 0.5% w/w sugar in CABCa agar): 205 fold
- upregulation in urease (ureC) expression (ureC; 0.5% w/w sugar in CABCa agar): 224 fold
